{
  "source": "patent US20060069132A1",
  "about": "“Azolecarboxamide herbicides” (priority 2004, published 2006)",
  "key": {"barnyardgrass": {"test_system": "barnyardgrass", "assay": "Test C flooded paddy test", "type": "in vivo, Echinochloa crus-galli", "conditions": "Echinochloa crus-galli", "outline": "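Postemergence sprays were applied to plants 2 to 18 cm tall (1- to 4-leaf stage); in the flooded paddy test, barnyardgrass was grown to the 2-leaf stage. After 12 to 14 days in a greenhouse, injury was visually rated against untreated controls on a 0–100 scale (100 = complete control).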"}, "giant foxtail": {"test_system": "giant foxtail", "assay": "Test C pre-/postemergence herbicide test", "type": "in vivo, Setaria faberi", "outline": "(§1)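 Pre/post spray; non-phytotoxic solvent + surfactant. Post-timing 1–4 leaves, 2–18 cm. Read-out: visual % control vs untreated, day 12–14, greenhouse.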"}, "[1]": {"test_system": "smallflower umbrella sedge", "assay": "Test C flooded paddy test", "type": "in vivo, Cyperus difformis", "conditions": "Cyperus difformis"}, "lambsquarters": {"test_system": "lambsquarters", "assay": "Test C pre-/postemergence herbicide test", "type": "in vivo, Chenopodium album", "outline": "as §1"}, "eastern black nightshade": {"test_system": "eastern black nightshade", "assay": "Test C pre-/postemergence herbicide test", "type": "in vivo, Solanum ptycanthum", "outline": "as §1"}, "redroot pigweed": {"test_system": "redroot pigweed", "assay": "Test A pre-/postemergence herbicide test", "type": "in vivo, Amaranthus retroflexus", "conditions": "Amaranthus retroflexus, 240 h; for pest or weed control at 500 g/ha: 500 g ai/ha; for pest or weed control at 2000 g/ha: 2000 g ai/ha", "outline": "(§2)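 Greenhouse injury scoring (0–100, complete control = 100) at approximately ten days follows simultaneous pre- and postemergence application. Soil received a directed spray after seeding; seedlings of 2–10 cm at the one- to two-leaf stage were sprayed to runoff.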"}, "morningglory [2]": {"test_system": "morningglory", "assay": "Test A pre-/postemergence herbicide test", "type": "in vivo, Ipomoea spp.", "conditions": "Ipomoea, 240 h; for pest or weed control at 500 g/ha: 500 g ai/ha; for pest or weed control at 2000 g/ha: 2000 g ai/ha", "outline": "as §2"}, "velvetleaf": {"test_system": "velvetleaf", "assay": "Test A pre-/postemergence herbicide test", "type": "in vivo, Abutilon theophrasti", "conditions": "Abutilon theophrasti, 240 h; for pest or weed control at 500 g/ha: 500 g ai/ha; for pest or weed control at 2000 g/ha: 2000 g ai/ha", "outline": "as §2"}, "bermudagrass": {"test_system": "bermudagrass", "assay": "Test C pre-/postemergence herbicide test", "type": "in vivo, Cynodon dactylon", "outline": "as §1"}, "common ragweed": {"test_system": "common ragweed", "assay": "Test C pre-/postemergence herbicide test", "type": "in vivo, Ambrosia elatior", "outline": "as §1"}, "yellow nutsedge": {"test_system": "yellow nutsedge", "assay": "Test C pre-/postemergence herbicide test", "type": "in vivo, Cyperus esculentus", "outline": "as §1"}, "morningglory [3]": {"test_system": "morningglory", "assay": "Test C pre-/postemergence herbicide test", "type": "in vivo, Ipomoea coccinea", "outline": "as §1"}, "[4]": {"conditions": "Preemergence, 500 g ai/ha, scale 0 to 100, 0 no effect, 100 complete control"}, "[5]": {"conditions": "post-emergence, Postemergence, 0 to 100 scale, 0 no effect, 100 complete control, read-out: Plant response rating, Pigweed"}, "[6]": {"conditions": "post-emergence, Postemergence, 0 to 100 scale, 0 no effect, 100 complete control, read-out: Plant response rating, Morningglory"}, "[7]": {"conditions": "post-emergence, Postemergence, 0 to 100 scale, 0 no effect, 100 complete control, read-out: Plant response rating, Velvetleaf"}},
  "note": "Like-named read-outs stand apart in the source and are kept apart here.",
  "data": [
    {"compound": "CCNC(=O)c1ccc(F)c(NC(=O)c2cc(C(C)(C)C)nn2CC)c1", "note": "[Compound 2, 3-(1,1-dimethylethyl)-1-ethyl-N-[5-[(ethylamino)carbonyl]-2-fluorophenyl]-1H-pyrazole-5-carboxamide]", "values": [
      {"measurement": "pest or weed control at 62 g/ha", "setting": "barnyardgrass; 62 g ai/ha, scale 0 to 100 (0 no effect, 100 complete control), read-out: Barnyardgrass plant response rating", "value": 15, "unit": "%"},
      {"measurement": "pest or weed control at 125 g/ha", "setting": "barnyardgrass; 125 g ai/ha, scale of 0 to 100, 0 is no effect, 100 is complete control, read-out: Barnyardgrass plant response rating", "value": 75, "unit": "%"},
      {"measurement": "pest or weed control at 250 g/ha", "setting": "barnyardgrass; 250 g ai/ha, visual rating after 12 to 14 days, scale 0 to 100 (0 no effect, 100 complete control), read-out: Plant response rating, Barnyardgrass", "value": 75, "unit": "%"},
      {"measurement": "pest or weed control at 500 g/ha", "setting": "barnyardgrass; 500 g ai/ha, visual rating after 12 to 14 days, scale 0 to 100 (0 no effect, 100 complete control), read-out: Plant response rating, Barnyardgrass", "value": 90, "unit": "%"},
      {"measurement": "Plant response rating (0 = no effect, 100 = complete control), Foxtail, Giant", "setting": "giant foxtail; 62 g ai/ha, preemergence", "value": 80},
      {"measurement": "Foxtail, Giant plant response rating", "setting": "giant foxtail; [4]", "value": 100},
      {"measurement": "pest or weed control at 125 g/ha", "setting": "giant foxtail; Setaria faberi, pre-emergence, 312 h, 125 g ai/ha, scale 0-100, read-out: Plant response rating, Foxtail, Giant", "value": 100, "unit": "%"},
      {"measurement": "pest or weed control at 250 g/ha", "setting": "giant foxtail; Setaria faberi, pre-emergence, 312 h, 250 g ai/ha, scale 0 to 100 (0 no effect, 100 complete control), visual, 12 to 14 days, read-out: Plant response rating, Foxtail, Giant", "value": 100, "unit": "%"},
      {"measurement": "pest or weed control at 62 g/ha", "setting": "[1]; 62 g ai/ha, scale 0 to 100 (0 no effect, 100 complete control), read-out: Sedge, Umbrella plant response rating", "value": 75, "unit": "%"},
      {"measurement": "pest or weed control at 125 g/ha", "setting": "[1]; 125 g ai/ha, scale of 0 to 100, 0 is no effect, 100 is complete control, read-out: Sedge, Umbrella plant response rating", "value": 75, "unit": "%"},
      {"measurement": "pest or weed control at 250 g/ha", "setting": "[1]; 250 g ai/ha, visual rating after 12 to 14 days, scale 0 to 100 (0 no effect, 100 complete control), read-out: Plant response rating, Sedge, Umbrella", "value": 85, "unit": "%"},
      {"measurement": "pest or weed control at 500 g/ha", "setting": "[1]; 500 g ai/ha, visual rating after 12 to 14 days, scale 0 to 100 (0 no effect, 100 complete control), read-out: Plant response rating, Sedge, Umbrella", "value": 95, "unit": "%"},
      {"measurement": "Plant response rating (0 = no effect, 100 = complete control), Lambsquarters", "setting": "lambsquarters; 62 g ai/ha, preemergence", "value": 100},
      {"measurement": "pest or weed control at 125 g/ha", "setting": "lambsquarters; Chenopodium album, pre-emergence, 125 g ai/ha, scale 0-100, read-out: Plant response rating, Lambsquarters", "value": 100, "unit": "%"},
      {"measurement": "pest or weed control at 250 g/ha", "setting": "lambsquarters; Chenopodium album, pre-emergence, 250 g ai/ha, scale 0 to 100 (0 no effect, 100 complete control), visual, 12 to 14 days, read-out: Plant response rating, Lambsquarters", "value": 100, "unit": "%"},
      {"measurement": "Lambsquarters plant response rating", "setting": "lambsquarters; [4]", "value": 100},
      {"measurement": "Plant response rating (0 = no effect, 100 = complete control), Nightshade", "setting": "eastern black nightshade; 62 g ai/ha, preemergence", "value": 100},
      {"measurement": "Nightshade plant response rating", "setting": "eastern black nightshade; [4]", "value": 100},
      {"measurement": "pest or weed control at 250 g/ha", "setting": "eastern black nightshade; pre-emergence, 250 g ai/ha, scale 0 to 100 (0 no effect, 100 complete control), visual, 12 to 14 days, read-out: Plant response rating, Nightshade", "value": 100, "unit": "%"},
      {"measurement": "pest or weed control at 500 g/ha", "setting": "redroot pigweed; [5]", "value": 100, "unit": "%"},
      {"measurement": "pest or weed control at 2000 g/ha", "setting": "redroot pigweed; [5]", "value": 100, "unit": "%"},
      {"measurement": "pest or weed control at 500 g/ha", "setting": "redroot pigweed; pre-emergence, Preemergence, visual rating, 0 to 100 scale (0 no effect, 100 complete control), read-out: Pigweed plant response rating", "value": 100, "unit": "%"},
      {"measurement": "pest or weed control at 2000 g/ha", "setting": "redroot pigweed; pre-emergence, Preemergence, 0 to 100 scale, 0 no effect, 100 complete control, read-out: Pigweed plant response rating", "value": 100, "unit": "%"},
      {"measurement": "pest or weed control at 500 g/ha", "setting": "morningglory [2]; [6]", "value": 45, "unit": "%"},
      {"measurement": "pest or weed control at 2000 g/ha", "setting": "morningglory [2]; [6]", "value": 80, "unit": "%"},
      {"measurement": "pest or weed control at 500 g/ha", "setting": "morningglory [2]; pre-emergence, Preemergence, visual rating, 0 to 100 scale (0 no effect, 100 complete control), read-out: Morningglory plant response rating", "value": 80, "unit": "%"},
      {"measurement": "pest or weed control at 2000 g/ha", "setting": "morningglory [2]; pre-emergence, Preemergence, 0 to 100 scale, 0 no effect, 100 complete control, read-out: Morningglory plant response rating", "value": 100, "unit": "%"},
      {"measurement": "pest or weed control at 500 g/ha", "setting": "velvetleaf; [7]", "value": 40, "unit": "%"},
      {"measurement": "pest or weed control at 2000 g/ha", "setting": "velvetleaf; [7]", "value": 75, "unit": "%"},
      {"measurement": "pest or weed control at 500 g/ha", "setting": "velvetleaf; pre-emergence, Preemergence, visual rating, 0 to 100 scale (0 no effect, 100 complete control), read-out: Velvetleaf plant response rating", "value": 100, "unit": "%"},
      {"measurement": "pest or weed control at 2000 g/ha", "setting": "velvetleaf; pre-emergence, Preemergence, 0 to 100 scale, 0 no effect, 100 complete control, read-out: Velvetleaf plant response rating", "value": 100, "unit": "%"},
      {"measurement": "Plant response rating (0 = no effect, 100 = complete control), Bermudagrass", "setting": "bermudagrass; 62 g ai/ha, preemergence", "value": 85},
      {"measurement": "pest or weed control at 125 g/ha", "setting": "bermudagrass; Cynodon dactylon, pre-emergence, 312 h, 125 g ai/ha, scale 0-100, read-out: Plant response rating, Bermudagrass", "value": 90, "unit": "%"},
      {"measurement": "pest or weed control at 250 g/ha", "setting": "bermudagrass; Cynodon dactylon, pre-emergence, 312 h, 250 g ai/ha, scale 0 to 100 (0 no effect, 100 complete control), visual, 12 to 14 days, read-out: Plant response rating, Bermudagrass", "value": 95, "unit": "%"},
      {"measurement": "pest or weed control at 500 g/ha", "setting": "bermudagrass; Cynodon dactylon, pre-emergence, 312 h, Preemergence, 500 g ai/ha, scale 0 to 100, 0 no effect, 100 complete control, read-out: Bermudagrass plant response rating", "value": 95, "unit": "%"},
      {"measurement": "Plant response rating (0 = no effect, 100 = complete control), Ragweed", "setting": "common ragweed; 62 g ai/ha, preemergence", "value": 80},
      {"measurement": "pest or weed control at 250 g/ha", "setting": "common ragweed; Ambrosia artemisiifolia, pre-emergence, 250 g ai/ha, scale 0 to 100 (0 no effect, 100 complete control), visual, 12 to 14 days, read-out: Plant response rating, Ragweed", "value": 100, "unit": "%"},
      {"measurement": "Ragweed plant response rating", "setting": "common ragweed; [4]", "value": 100},
      {"measurement": "Plant response rating (0 = no effect, 100 = complete control), Nutsedge, Yellow", "setting": "yellow nutsedge; 62 g ai/ha, preemergence", "value": 30},
      {"measurement": "pest or weed control at 250 g/ha", "setting": "yellow nutsedge; Cyperus, pre-emergence, 250 g ai/ha, scale 0 to 100 (0 no effect, 100 complete control), visual, 12 to 14 days, read-out: Plant response rating, Nutsedge, Yellow", "value": 90, "unit": "%"},
      {"measurement": "Plant response rating (0 = no effect, 100 = complete control), Morningglory", "setting": "morningglory [3]; 62 g ai/ha, preemergence", "value": 5},
      {"measurement": "pest or weed control at 250 g/ha", "setting": "morningglory [3]; Ipomoea, pre-emergence, 250 g ai/ha, scale 0 to 100 (0 no effect, 100 complete control), visual, 12 to 14 days, read-out: Plant response rating, Morningglory", "value": 45, "unit": "%"},
      {"measurement": "Morningglory plant response rating", "setting": "morningglory [3]; [4]", "value": 100}
    ]}
  ]
}
